According to US7498350B2, “Oxazolidinones as antibacterial agents” (AstraZeneca AB, priority 2002, dated 2009):
≈ marks a conversion by molar mass, not a printed value.

Experiments:
Assay type in all cases: cell-based
[1] = test system: Streptococcus pneumoniae; assay: MIC by agar dilution, Streptococcus pneumoniae; details: agar with 5% defibrinated horse blood, 10^4 CFU/spot, 37° C., 5% carbon dioxide, 48 hours
Procedure: (§1) The following results were obtained on a standard in-vitro test system. The activity is described in terms of the minimum inhibitory concentration (MIC) determined by the agar-dilution technique with an inoculum size of 10^4 CFU/spot. Typically, compounds are active in the range 0.01 to 256 μg/ml.
(§2) Streptococci and enterococci were tested on agar supplemented with 5% defibrinated horse blood, an inoculum of 10^4 CFU/spot and an incubation temperature of 37° C. in an atmosphere of 5% carbon dioxide for 48 hours—blood is required for the growth of some of the test organisms. Fastidious Gram negative organisms were tested in Mueller-Hinton broth supplemented with hemin and NAD, grown aerobically for 24 hours at 37° C., and with an innoculum of 5×10^4 CFU/well.

[2] = test system: Haemophilus influenzae; assay: MIC, Haemophilus influenzae (fastidious Gram negative, Mueller-Hinton broth); details: Mueller-Hinton broth with hemin and NAD, 24 hours, 37° C., 5×10^4 CFU/well
Procedure: as §1, §2

[3] = test system: Linezolid Resistant Streptococcus pneumoniae; assay: MIC by agar dilution, Linezolid Resistant Streptococcus pneumoniae; details: agar with 5% defibrinated horse blood, 10^4 CFU/spot, 37° C., 5% carbon dioxide, 48 hours
Procedure: as §1, §2

[4] = test system: Moraxella catarrhalis; assay: MIC, Moraxella catarrhalis (fastidious Gram negative, Mueller-Hinton broth); details: Mueller-Hinton broth with hemin and NAD, 24 hours, 37° C., 5×10^4 CFU/well
Procedure: as §1, §2

[5] = test system: Enterococcus faecium; assay: MIC by agar dilution, Enterococcus faecium; details: agar with 5% defibrinated horse blood, 10^4 CFU/spot, 37° C., 5% carbon dioxide, 48 hours
Procedure: as §1, §2

[6] = test system: Staphylococcus aureus MRQR (methicillin resistant and quinolone resistant); assay: MIC by agar dilution, Staphylococcus aureus MRQR; details: 10^4 CFU/spot, 37° C., 24 hours
Procedure: as §1
(§3) Staphylococci were tested on agar, using an inoculum of 10^4 CFU/spot and an incubation temperature of 37° C. for 24 hours—standard test conditions for the expression of methicillin resistance.

[7] = test system: Staphylococcus aureus MSQS (methicillin sensitive and quinolone sensitive); assay: MIC by agar dilution, Staphylococcus aureus MSQS; details: 10^4 CFU/spot, 37° C., 24 hours
Procedure: as §1, §3

MIC [1]: < 0.06 µg/mL | MIC [2]: 2 µg/mL (≈ 4.75 µM) | MIC [3]: 0.5 µg/mL (≈ 1.19 µM) | MIC [4]: 0.25 µg/mL (≈ 0.593 µM) | MIC [5]: 0.25 µg/mL (≈ 0.593 µM) | MIC [6]: 0.25 µg/mL (≈ 0.593 µM) | MIC [7]: 0.25 µg/mL (≈ 0.593 µM)
SMILES: Cn1nnc(-c2ccc(-c3ccc(N4C[C@H](Cn5ccnn5)OC4=O)cc3F)cn2)n1 [Example 1, (5R)-3-(3-Fluoro-4-(6-(2-methyl-2H-tetrazol-5-yl)pyrid-3-yl)phenyl)-5-(1H-1,2,3-triazol-1-ylmethyl)-1,3-oxazolidin-2-one]
